Laboratory results: patent publication EP4599817A1, “IMPACT ON ENAMEL AND DENTINE […] THROUGH MEDIATED IMPACT OF ANTAGONISTS ON TRPV1 AND TRCP5 […] IN ORAL CARE PRODUCTS” (SkyLab AG, priority 2024, dated 2025)
Several values for one entry are separate records, joined by “and”; a condition that tells them apart may be missing. Equal entries are not always repeated.

Columns and labels:
[1] = tested on: TRPC5; conditions: animal model, cited from earlier work
[2] = tested on: hypersensitive teeth; assay: Randomized controlled study of dentine hypersensitivity: visual analogue scale (VAS) score with hot applicator and ice cube, before and after first mouthwash application; type: in vivo, patients; set-up: key to Before Ice / Before Hot: VAS score, 0 = no pain to 10 = severe pain (10 cm line); conditions: for Hot After 1 use Mean / Ice After 1 use Mean / Before Hot Mean / Before Ice Mean / Hot After 1 use / Ice After 1 use: VAS 0-10; for Hot After 1 use Mean / Ice After 1 use Mean / Before Hot Mean / Before Ice Mean: group mean of 6 subjects; for Hot After 1 use Mean / Ice After 1 use Mean: after first application of mouthwash; for Hot After 1 use Mean / Before Hot Mean / Hot After 1 use / Before Hot / Modifications in HS after the product application, Hot After 1 use, %: applicator heated to 90C; for Ice After 1 use Mean / Before Ice Mean / Ice After 1 use / Before Ice / Modifications in HS after the product application, Ice After 1 use, %: ice cube; for Before Hot Mean / Before Ice Mean / Before Hot / Before Ice: baseline before mouthwash; for Hot After 1 use / Ice After 1 use / Before Hot / Before Ice: individual subjects 1-6; for Hot After 1 use / Ice After 1 use: after first application of mouthwash (potassium nitrate 5%, galangin 0,1%, adenosine 0,05%, oleic acid 0,1% or combination); for Before Hot / Before Ice: VAS 0 - no pain, 10 - severe pain; for Modifications in HS after the product application, Hot After 1 use, % / Modifications in HS after the product application, Ice After 1 use, %: decrease of mean VAS versus before, mouthwash, first application
Description: Table 2. Schedule of enrollment, intervention and assessment of the study
• Age from 18 to 35 years old • Good overall health; • At least one DHS tooth with sensitivity over or equal to 4 (VAS). Withdrawal criteria • Active caries or defective restorations on the tested tooth; • Considerable loss of dentine, requiring remedial treatment or paradental surgery; • Presence of veneers; • Any professional desensitizing treatment during previous 6 months; • Use of desensitizing toothpaste during previous 3 months. • Use of anti-inflammatory medicine or painkillers during enrollment; • Currently pregnant of breast-feeding.
The subjects were randomized into 6 treatment groups, two control groups of which were negative and positive controls (Fig. 3).
For random distribution of subjects, randomization was made as a draw with the website www.randomizer.org. An average value of initial points according to DHS degree was determined for each subject, and the subjects were randomized into treatment groups providing the equivalent initial DHS points for various treatment modes. All the hypersensitive teeth in each subject were estimated with the use of DHS; an average value was considered for the baseline. All the hypersensitive teeth were subjected and re-estimated. Next, and average value was calculated for the final estimation of sensitivity.
These products were used by them till the end of the study. An oral care set included soft toothbrush and toothpaste for general oral care.
The treatment groups received mouthwashes with the following systems; Table 3. Basic formulation of mouthwash to include the system: […]
The primary result expected in the study was the decrease of dental hypersensitivity after the first application of the product. The result of the system application was calculated with a visual analogue scale, which registers sensitivity with a 10 cm line. The line extremums are the pain limits, which the subject can feel from external irritant (0 - no pain; 10 - severe pain). First, dental sensitivity was registered with an ice cube and an applicator heated to 90C. After the first application, sensitivity to external irritant was registered with an ice cube and an applicator heated to 90C.
The tested sample size was 36 subjects. The data was collected and then filtered out from errors and processed with the standard functionality of MS Excel. The charts were made with Microsoft Excel software. Table 5. Results of hypersensitivity assessment study

[3] = biological target: T1, TRPC5 receptors (Homo sapiens, UniProt Q9UL62); conditions: compared with galangin; cited from earlier work
T1 sequence (Q9UL62 1-973): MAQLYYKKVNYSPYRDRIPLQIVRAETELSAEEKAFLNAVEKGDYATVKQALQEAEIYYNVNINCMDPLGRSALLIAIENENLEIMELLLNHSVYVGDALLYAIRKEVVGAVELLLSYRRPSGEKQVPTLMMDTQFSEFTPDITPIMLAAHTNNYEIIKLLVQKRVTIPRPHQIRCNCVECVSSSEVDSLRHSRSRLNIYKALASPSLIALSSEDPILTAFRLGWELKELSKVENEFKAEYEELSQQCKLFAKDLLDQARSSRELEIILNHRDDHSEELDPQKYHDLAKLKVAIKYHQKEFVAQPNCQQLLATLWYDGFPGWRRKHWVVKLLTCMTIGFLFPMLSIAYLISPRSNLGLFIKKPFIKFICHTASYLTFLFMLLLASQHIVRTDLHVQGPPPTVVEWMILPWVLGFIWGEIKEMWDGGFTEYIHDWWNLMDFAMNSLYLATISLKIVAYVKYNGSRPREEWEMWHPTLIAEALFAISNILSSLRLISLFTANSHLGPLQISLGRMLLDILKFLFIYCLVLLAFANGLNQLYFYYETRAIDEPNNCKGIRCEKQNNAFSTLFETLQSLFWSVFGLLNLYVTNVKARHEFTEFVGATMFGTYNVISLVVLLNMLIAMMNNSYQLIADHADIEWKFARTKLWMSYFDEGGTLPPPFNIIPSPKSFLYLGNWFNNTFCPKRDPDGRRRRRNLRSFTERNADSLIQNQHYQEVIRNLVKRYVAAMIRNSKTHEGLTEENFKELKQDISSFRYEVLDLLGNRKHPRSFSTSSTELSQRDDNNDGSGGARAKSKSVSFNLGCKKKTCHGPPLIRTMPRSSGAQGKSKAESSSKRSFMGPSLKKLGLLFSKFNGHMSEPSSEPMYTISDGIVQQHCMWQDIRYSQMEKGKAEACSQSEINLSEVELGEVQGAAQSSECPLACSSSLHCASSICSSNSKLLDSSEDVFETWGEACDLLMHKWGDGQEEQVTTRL

[4] = oral administration; due to intensive metabolism; cited from earlier work
[5] = biological target: T2, CYP1A1 (Homo sapiens, UniProt P04798); conditions: with various proteins, such as CYP1A1; transformation into kaempferol; cited from earlier work
T2 sequence (P04798 1-512): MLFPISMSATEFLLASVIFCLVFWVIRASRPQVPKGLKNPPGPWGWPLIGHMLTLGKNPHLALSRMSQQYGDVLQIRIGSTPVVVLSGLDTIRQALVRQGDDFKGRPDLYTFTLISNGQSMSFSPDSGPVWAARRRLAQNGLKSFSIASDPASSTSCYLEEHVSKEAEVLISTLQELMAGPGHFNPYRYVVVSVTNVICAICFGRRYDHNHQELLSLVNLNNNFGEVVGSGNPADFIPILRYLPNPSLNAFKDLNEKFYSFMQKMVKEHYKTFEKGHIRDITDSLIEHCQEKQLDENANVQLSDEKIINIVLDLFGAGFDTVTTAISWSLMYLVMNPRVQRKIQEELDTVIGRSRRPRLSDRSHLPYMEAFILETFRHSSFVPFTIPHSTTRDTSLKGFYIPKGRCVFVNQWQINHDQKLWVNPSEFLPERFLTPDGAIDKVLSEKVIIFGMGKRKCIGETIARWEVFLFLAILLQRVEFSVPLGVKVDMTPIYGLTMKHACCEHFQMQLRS

[6] = pure galangin; cited from earlier work
[7] = biological target: TRPV1 (Homo sapiens, UniProt Q8NER1); conditions: clinical trial after third molar extraction; trial terminated; cited from earlier work
Sequence of TRPV1 (Q8NER1 whole entry): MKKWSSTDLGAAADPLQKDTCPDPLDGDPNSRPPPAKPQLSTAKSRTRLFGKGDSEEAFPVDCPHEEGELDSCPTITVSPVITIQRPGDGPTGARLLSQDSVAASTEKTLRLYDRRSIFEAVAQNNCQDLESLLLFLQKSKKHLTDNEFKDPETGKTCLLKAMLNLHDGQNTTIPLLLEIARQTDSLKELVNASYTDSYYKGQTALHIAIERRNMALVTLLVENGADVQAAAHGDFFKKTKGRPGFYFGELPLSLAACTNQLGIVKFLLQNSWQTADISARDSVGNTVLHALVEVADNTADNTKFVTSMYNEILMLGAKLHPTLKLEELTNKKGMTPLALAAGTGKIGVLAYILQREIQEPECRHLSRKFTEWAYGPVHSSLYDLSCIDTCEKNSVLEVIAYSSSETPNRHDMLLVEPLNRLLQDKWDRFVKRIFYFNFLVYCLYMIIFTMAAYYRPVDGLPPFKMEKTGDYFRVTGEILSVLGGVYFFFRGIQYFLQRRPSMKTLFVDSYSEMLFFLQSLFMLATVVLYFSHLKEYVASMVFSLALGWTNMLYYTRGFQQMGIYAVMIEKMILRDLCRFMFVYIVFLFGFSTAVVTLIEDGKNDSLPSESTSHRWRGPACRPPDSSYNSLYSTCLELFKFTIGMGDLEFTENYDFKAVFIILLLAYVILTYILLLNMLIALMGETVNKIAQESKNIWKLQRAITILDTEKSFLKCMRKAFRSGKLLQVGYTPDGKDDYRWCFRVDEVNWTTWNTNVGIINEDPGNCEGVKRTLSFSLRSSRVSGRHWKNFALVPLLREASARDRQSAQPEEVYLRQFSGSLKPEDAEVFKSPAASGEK

| Structure (SMILES) | Hot After 1 use Mean [2] | Ice After 1 use Mean [2] | Before Hot Mean [2] | Before Ice Mean [2] | Modifications in HS after the product application, Hot After 1 use, % [2] | Modifications in HS after the product application, Ice After 1 use, % [2] | further results |
| --- | --- | --- | --- | --- | --- | --- | --- |
| Nc1nc2ccc(OC(F)(F)F)cc2s1 [ruizole] | – | – | – | – | – | – | jaw sensitivity ([1]; agonist of TRPC5 channel): increased jaw sensitivity |
| O=[N+]([O-])[O-].[K+] [Potassium nitrate] | 6 | 5,7 | 6,7 | 7,6 | 10.4% | 25% | Hot After 1 use ([2]; listed as 1): 5 (2×) and 4 and 7 (2×) and 8; Ice After 1 use ([2]; listed as 1): 5 (2×) and 4 and 7 (2×) and 6; Before Hot ([2]; listed as 1): 5 (2×) and 6 and 8 (3×); Before Ice ([2]; listed as 1): 7 and 8 (3×) and 6 and 9 |
| O=c1c(O)c(-c2ccc(O)cc2)oc2cc(O)cc(O)c12 [kaempferol] | – | – | – | – | – | – | impact on TRPC5 receptors [3]: either does not affect TRPC5 receptors, or shows a significantly milder impact than that of galangin |
| CCCCCCCC/C=C\CCCCCCCC(=O)O [Oleic acid, oleic acid] | 4,3 | 5,2 | 6,8 | 7,2 | 36.8% | 27.8% | Hot After 1 use ([2]; listed as 5): 3 and 5 and 4 (3×) and 6; Ice After 1 use ([2]; listed as 5): 8 and 4 (2×) and 6 (2×) and 3; Before Hot ([2]; listed as 5): 5 and 9 and 6 (2×) and 8 and 7; Before Ice ([2]; listed as 5): 9 and 8 (2×) and 5 and 7 and 6 |
| O=c1c(O)c(-c2ccccc2)oc2cc(O)cc(O)c12 [Galangin, galangin] | 4,6 | 2,5 | 5,2 | 5,8 | 11.5% | 56,9% | bioavailability [4]: extremely low bioavailability; metabolic oxidation [5]: prone to rapid metabolic oxidation; Hot After 1 use ([2]; listed as 3): 4 and 6 and 3 and 5 (3×); Ice After 1 use ([2]; listed as 3): 3 (2×) and 2 (2×) and 4 and 1; Before Hot ([2]; listed as 3): 3 and 6 (2×) and 4 and 7 and 5; Before Ice ([2]; listed as 3): 6 (3×) and 5 (2×) and 7; solubility in water [6]: practically insoluble in water |
| CC(=O)Nc1nc2c(Oc3cc(-c4ccc(C(F)(F)F)cc4)ncn3)cccc2s1 [AMG 517] | – | – | – | – | – | – | body temperature [7]: increased body temperature |
| Cc1cc(N2CCCCC2)nc2ccccc12 [ML204] | – | – | – | – | – | – | response to cold and pain ([1]; TRPC5 blockers): effectively eliminated any response to cold and prevented pain |
| Nc1ncnc2c1ncn2[C@@H]1O[C@H](CO)[C@@H](O)[C@H]1O [Adenosine, adenosine] | 4 | 6,8 | 7,3 | 7 | 45.2% | 2.8% | Hot After 1 use ([2]; listed as 4): 5 and 6 and 4 (2×) and 2 and 3; Ice After 1 use ([2]; listed as 4): 8 and 9 and 6 (2×) and 5 and 7; Before Hot ([2]; listed as 4): 8 and 9 (2×) and 7 and 6 and 5; Before Ice ([2]; listed as 4): 8 (2×) and 7 (2×) and 6 (2×) |
